From patent publication US11426367B2, “Methods of treating substance abuse” (Perception Neuroscience, Inc., priority 2018, dated 2022)

Columns and labels:
Morphine Seizures = conditions: Not blocked by naloxone; Kolesnikov et al., 1997; cited from earlier work
[1] = system: cerebral metabolic rates of glucose; conditions: healthy volunteers, Non Patent Literature 13, cited from earlier work; for cerebral metabolic rates of glucose (CMRglu), PET: S(+)-ketamine i.v. 15 mg for 5 min then 0.014 to 0.02 mg/kg/min for 53 min, R(−)-ketamine equimolar doses
[2] = system: rewarding effects of morphine; assay: Morphine-induced conditioned place preference; assay type: in vivo, mice; conditions: for Morphine CPP, dose blocking the rewarding effects of morphine: Table 11, Present study
Protocol: The methods for conditioned place preference and evaluation of R-ketamine were conducted using the general methods of Suzuki et al. (2000). The general design was to dose mice with either saline+saline, saline+morphine, or R-ketamine+morphine and evaluate their preference for the morphine-associated place.
Male ddY mice (20-23 g) were obtained from Tokyo Experimental Animals Inc. (Tokyo, Japan). The ddY mice were bred in a closed colony. The mice were housed at a temperature of 22 f 1° C. with a 12-h light-dark cycle (light on 8:30 a.m. to 8:30 p.m.). Food and water were available ad libitum.
Place conditioning was conducted as described previously, using a minor modification of a biased procedure according to Suzuki et al. (2000). The apparatus consisted of a shuttlebox (15×30×15 cm: w×l×h) made of an acryl-resin board. The box was divided into two compartments of equal size by means of a sliding partition. One compartment was white with a textured floor; the other was black with a smooth floor. For conditioning mice were immediately conditioned to the white compartment following drug injection and to the black compartment following vehicle injection.
Conditioning sessions were conducted once daily for 6 consecutive days. […] Preference for a particular place was assessed in the drug-free state after placing the animals on the neutral platform and allowing them free access to both compartments. The time spent in each compartment during a 900-sec session was then measured automatically in a blinded fashion by two infrared beam sensors (KN-80, Natsume Seisakusyo, Tokyo, Japan) on the covers (3 cm from the center and the side) of the white and black compartments. […]
Conditioning scores represent the time spent in the drug-paired place minus the time spent in the vehicle-paired place, and are expressed as the mean±S.E.M. Behavioral data were evaluated statistically with a one-way analysis of variance (ANOVA) followed by Dunnett's test to determine whether individual doses produced significant conditioning.

[3] = system: social defeat stress mice; assay: Tail suspension test (TST), social defeat stress model; assay type: in vivo; conditions: 10 mg/kg i.p.
Protocol: (§1) A social defeat stress model of depression was prepared by bringing C57/B6 male mice into contact with ICR male mice (large aggressive mice) for 10 consecutive days to apply a stress called a “social defeat stress” in accordance with the previous report (Non Patent Literature 19). […] Specifically, an increase in immobility time was found in each of a tail suspension test (TST) and a forced swimming test (FST).
(§2) The preparation of the animal model of depression and the administration of the agent were specifically performed as described below (FIG. 3A). Male C57/B6 mice (7-week-old, Japan SLC, Inc., Hamamatsu, Japan) and ICR mice (9-week-old, Japan SLC, Inc., Hamamatsu, Japan) were used. The mice were given free access to water and feed. A social defeat stress was applied by housing one C57/B6 mouse with one ICR mouse for 10 days.
(§3) The antidepressant effects of the agent were investigated by behavioral tests such as the TST, the PST, the LMT, and a 1% sucrose preference test (SPT) (FIG. 3A). The 1% sucrose preference test (SPT) was performed on 1 day and 6 days after the injection of ketamine. Each of the TST and the PST was performed on 2 days and 7 days after the injection of ketamine. The TST was performed as described below. First, the mice were taken out from cages, and then a small piece of an adhesive tape was bonded onto a portion approximately 2 cm away from the tip of the tail of the mice. A small hole was opened in the small piece, and the mice were each fixed upside down on a hook through the small hole. The immobility time of each mouse was recorded for 10 minutes. Mice were considered immobile only when they hung passively and completely motionless. The immobility time increases in a depressive state. The PST was performed as described below. First, the mice were placed individually in a cylinder (diameter: 23 cm; height: 31 cm) containing 15 cm of water, maintained at 22 to 24 deg C. The mice were tested in an automated forced-swimming apparatus using SCANET MV-40 ([…] Co., Ltd., Toyama, Japan). The immobility time was calculated as a value obtained by subtracting active time from total time, using the analysis software of the apparatus. Cumulative immobility time was recorded over 6 minutes during a test period. The LMT was performed as described below. First, the mice were placed in experimental cages (length×width×height: 560×560×330 mm). The locomotor activity of the mice was counted with SCANET MV-40, and the cumulative exercise of the mice was recorded for 60 minutes. The cages were cleaned between testing session. The immobility time increases in a depressive state. […] A spine density was quantitatively evaluated by observation with a KEYENCE microscope (BZ-9000, Osaka, Japan).

[4] = system: social defeat stress mice; assay: Forced swimming test (FST), social defeat stress model; assay type: in vivo; conditions: 10 mg/kg i.p.
Protocol: as §1, §2, §3

[5] = system: dopamine release in the striatum; conditions: imaging studies in nonhuman primates; Hashimoto et al., 2017; cited from earlier work
Control C57/B6 mice = assay: Prepulse inhibition test in control mice; conditions: control mice, 5, 10 or 20 mg/kg
Protocol: PP69, PP73, PP77, and PP81 mean that stimuli at 69, 73, 77, and 81 dB for more than 20 milliseconds were presented 100 milliseconds before a 110-dB pulse, respectively. Data analysis was performed by Wilks Lambda, which is multivariate analysis of variance (Example 3).
The prepulse inhibition test was performed using a startle response system (SR-LAB, SanDiego Instruments, San Diego, Calif., United States). The analysis of the results of prepulse inhibition was performed by multivariate analysis of variance (MANOVA), followed by a least significant difference test (LSD test). Data are presented as the mean plus minus standard error of the mean (n=10 to 12 mice/group). *p<0.05 and p<0.01 indicate significant differences as compared to a group injected with saline.

[6] = system: social defeat stress mice; assay: 1% sucrose preference test (SPT), social defeat stress model; assay type: in vivo; conditions: 10 mg/kg i.p.
Protocol: as §1, §2, §3

SMILES: CN[C@@]1(c2ccccc2Cl)CCCCC1=O.Cl [R(−)-ketamine]
- Morphine Seizures, dose (Morphine Seizures): 0.3 mg/kg
- psychotic symptoms ([1]; doses equimolar to psychotomimetic doses of S(+)-ketamine): did not produce psychotic symptoms
- cerebral metabolic rates of glucose (CMRglu), PET [1]: tended to decrease CMRglu
- conditioned place preference induced by morphine ([2]; 10 mg/kg i.p. co-dosed with morphine 5 mg/kg i.p., F(2,29)=2.2, p=0.064): trend toward significant attenuation
- Morphine CPP, dose blocking the rewarding effects of morphine [2]: 10 mg/kg
- immobility time in the TST ([3]; 2 days after injection): markedly reduced the immobility time
- immobility time in the TST ([3]; 7 days after injection): significantly reduced the immobility time
- immobility time in the FST ([4]; 2 days after injection): markedly reduced the immobility time
- immobility time in the FST ([4]; 7 days after injection): significantly reduced the immobility time
- dopamine release in the striatum [5]: not
- prepulse inhibition (Control C57/B6 mice): did not disrupt prepulse inhibition
- sucrose consumption preference in the SPT ([6]; 1 day after injection): sucrose consumption preference significantly increased
- sucrose consumption preference in the SPT ([6]; 6 days after injection): significantly restored the sucrose consumption preference

SMILES: CN[C@]1(c2ccccc2Cl)CCCCC1=O [S(+)-ketamine]
- Morphine Seizures, dose (Morphine Seizures): 0.03 mg/kg
- cerebral metabolic rates of glucose (CMRglu), PET [1]: increased cerebral metabolic rates of glucose
- Morphine CPP, dose blocking the rewarding effects of morphine [2]: 10 mg/kg
- immobility time in the TST ([3]; 2 days after injection): markedly reduced the immobility time
- immobility time in the TST ([3]; 7 days after injection): significantly reduced the immobility time
- immobility time in the FST ([4]; 2 days after injection): markedly reduced the immobility time
- immobility time in the FST ([4]; 7 days after injection): significantly reduced the immobility time
- dopamine release in the striatum [5]: increases dopamine release in the striatum
- prepulse inhibition (Control C57/B6 mice): disrupted prepulse inhibition in a dose-dependent manner
- sucrose consumption preference in the SPT ([6]; 1 day after injection): sucrose consumption preference significantly increased
- sucrose consumption preference in the SPT ([6]; 6 days after injection): significantly restored the sucrose consumption preference
